The source of these data is patent publication US20180022810A1, “USE OF CXCR3 INHIBITORS FOR PROTECTING AGAINST FETAL WASTAGE” (Children's Hospital Medical Center, priority 2015, published 2018).

This experiment relates to C57BL/6 female mice bearing allogeneic pregnancy sired by Balb/c males. The experiment is described as follows: Fetal wastage and in utero Lm invasion after virulent Lm (strain 10403s) prenatal infection, allogeneic pregnancy. The format is in vivo. The following applies: virulent Lm 10^4 CFU, ampicillin in drinking water.

Consider `CC1(C)S[C@@H]2[C@H](NC(=O)[C@H](N)c3ccccc3)C(=O)N2[C@H]1C(=O)O` [ampicillin], for which, under “treatment delayed until 24 hours post-infection”, the “benefits (protection against fetal wastage)” value is given as “uniformly dissipated”. The “protection against fetal wastage” value (treatment initiated 12 hours after infection) is “near complete protection”.
